Laboratory results as given in patent US20230085307A1, “PYRIDAZINONE COMPOUND AND HERBICIDE” (NISSAN CHEMICAL CORPORATION, priority 2019, published 2023).

What was measured:
late watergrass = test: Test Example 1: herbicidal activity, application before weed generation under submerged conditions (Table 16, symbol A); assay type: in vivo, late watergrass (Echinochloa oryzicola)
How it was run: (§1)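 Alluvial soil was flooded to 4 cm depth, weed seeds were sown mixed and 2.5-leaf rice seedlings were transplanted. On sowing day, the compound's emulsion, diluted in water to a set dose, was applied to the water surface. Plants grew at 25–30 °C and were scored 0–5 after three weeks.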

Japanese bulrush = test: Test Example 1: herbicidal activity, application before weed generation under submerged conditions (Table 16, symbol B); assay type: in vivo, Japanese bulrush (Schoenoplectus juncoides)
How it was run: as §1

oval-leafed pondweed = test: Test Example 1: herbicidal activity, application before weed generation under submerged conditions (Table 16, symbol C); assay type: in vivo, oval-leafed pondweed (Monochoria vaginalis)
How it was run: as §1

barnyard grass [1] = test: Test Example 3: herbicidal effect by foliage application, Wagner pot (Table 18, symbol H); assay type: in vivo, barnyard grass (Echinochloa crus-galli)
How it was run: (§2)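 Plants were sown in alluvial soil held under 0.1–0.5 cm standing water and grown 14 days in a greenhouse at 25–30 °C. An emulsifiable formulation, water-diluted to the set dose, was then sprayed onto the foliage, and effects were scored three weeks later using previously defined criteria.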

Chinese sprangletop = test: Test Example 3: herbicidal effect by foliage application, Wagner pot (Table 18, symbol D); assay type: in vivo, chinese sprangletop (Leptochloa chinensis)
How it was run: as §2

rice flat sedge = test: Test Example 3: herbicidal effect by foliage application, Wagner pot (Table 18, symbol E); assay type: in vivo, rice flat sedge (Cyperus iria)
How it was run: as §2

southern crabgrass [2] = test: Test Example 4: herbicidal effect by soil treatment (Table 19, symbol F); assay type: in vivo, southern crabgrass (Digitaria ciliaris)
How it was run: (§3)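 Seeds were sown in sterilized diluvial soil and covered with about 1.5 cm of soil. An emulsion formulation diluted with water to a predetermined herbicide amount was sprayed evenly onto the soil surface. Plants grew in a greenhouse at 25° C. to 30° C., and the effect was scored three weeks after application using criteria from an earlier test.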

green foxtail [3] = test: Test Example 4: herbicidal effect by soil treatment (Table 19, symbol G); assay type: in vivo, green foxtail (Setaria viridis)
How it was run: as §3

barnyard grass [4] = test: Test Example 4: herbicidal effect by soil treatment (Table 19, symbol H); assay type: in vivo, barnyard grass (Echinochloa crus-galli)
How it was run: as §3

wild oat [5] = test: Test Example 4: herbicidal effect by soil treatment (Table 19, symbol I); assay type: in vivo, wild oat (Avena fatua)
How it was run: as §3

blackgrass [6] = test: Test Example 4: herbicidal effect by soil treatment (Table 19, symbol J); assay type: in vivo, blackgrass (Alopecurus myosuroides)
How it was run: as §3

Italian ryegrass [7] = test: Test Example 4: herbicidal effect by soil treatment (Table 19, symbol K); assay type: in vivo, Italian ryegrass (Lolium multiflorum)
How it was run: as §3

windgrass [8] = test: Test Example 4: herbicidal effect by soil treatment (Table 19, symbol L); assay type: in vivo, windgrass (Apera spica-venti)
How it was run: as §3

velvetleaf [9] = test: Test Example 4: herbicidal effect by soil treatment (Table 19, symbol M); assay type: in vivo, velvetleaf (Abutilon theophrasti)
How it was run: as §3

redroot pigweed [10] = test: Test Example 4: herbicidal effect by soil treatment (Table 19, symbol N); assay type: in vivo, redroot pigweed (Amaranthus retroflexus)
How it was run: as §3

lambsquarters [11] = test: Test Example 4: herbicidal effect by soil treatment (Table 19, symbol O); assay type: in vivo, lambsquarters (Chenopodium album)
How it was run: as §3

false cleavers = test: Test Example 4: herbicidal effect by soil treatment (Table 19, symbol Q); assay type: in vivo, false cleavers (Galium spurium)
How it was run: as §3

southern crabgrass [12] = test: Test Example 5: herbicidal effect by foliage application, plastic box (Table 20, symbol F); assay type: in vivo, southern crabgrass (Digitaria ciliaris); details: foliage application, 320 g/ha
How it was run: (§4)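 Plants sown in sterilized diluvial soil and grown 14 days in a greenhouse at 25° C to 30° C, then sprayed on the foliage with the compound's emulsion diluted in water to a predetermined herbicide amount. Injury to weeds and crops scored three weeks after application on a visual rating scale.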

green foxtail [13] = test: Test Example 5: herbicidal effect by foliage application, plastic box (Table 20, symbol G); assay type: in vivo, green foxtail (Setaria viridis); details: foliage application, 320 g/ha
How it was run: as §4

barnyard grass [14] = test: Test Example 5: herbicidal effect by foliage application, plastic box (Table 20, symbol H); assay type: in vivo, barnyard grass (Echinochloa crus-galli); details: foliage application, 320 g/ha
How it was run: as §4

wild oat [15] = test: Test Example 5: herbicidal effect by foliage application, plastic box (Table 20, symbol I); assay type: in vivo, wild oat (Avena fatua); details: foliage application, 320 g/ha
How it was run: as §4

blackgrass [16] = test: Test Example 5: herbicidal effect by foliage application, plastic box (Table 20, symbol J); assay type: in vivo, blackgrass (Alopecurus myosuroides); details: foliage application, 320 g/ha
How it was run: as §4

Italian ryegrass [17] = test: Test Example 5: herbicidal effect by foliage application, plastic box (Table 20, symbol K); assay type: in vivo, Italian ryegrass (Lolium multiflorum); details: foliage application, 320 g/ha
How it was run: as §4

windgrass [18] = test: Test Example 5: herbicidal effect by foliage application, plastic box (Table 20, symbol L); assay type: in vivo, windgrass (Apera spica-venti); details: foliage application, 320 g/ha
How it was run: as §4

velvetleaf [19] = test: Test Example 5: herbicidal effect by foliage application, plastic box (Table 20, symbol M); assay type: in vivo, velvetleaf (Abutilon theophrasti); details: foliage application, 320 g/ha
How it was run: as §4

redroot pigweed [20] = test: Test Example 5: herbicidal effect by foliage application, plastic box (Table 20, symbol N); assay type: in vivo, redroot pigweed (Amaranthus retroflexus); details: foliage application, 320 g/ha, evaluated three weeks after application
How it was run: as §4

lambsquarters [21] = test: Test Example 5: herbicidal effect by foliage application, plastic box (Table 20, symbol O); assay type: in vivo, lambsquarters (Chenopodium album); details: foliage application, 320 g/ha
How it was run: as §4

chickweed = test: Test Example 5: herbicidal effect by foliage application, plastic box (Table 20, symbol P); assay type: in vivo, common chickweed (Stellaria media); details: foliage application, 320 g/ha, evaluated three weeks after application
How it was run: as §4

persian speedwell = test: Test Example 5: herbicidal effect by foliage application, plastic box (Table 20, symbol R); assay type: in vivo, Persian speedwell (Veronica persica); details: foliage application, 320 g/ha
How it was run: as §4

[22] = evaluated three weeks after application
[23] = amount of applied herbicide 320 g/ha

SMILES: CCCC(=O)Oc1c(C)nn(C)c(=O)c1-c1c(-c2ccc(Cl)c(Cl)c2)sc2ccc(F)cc12 [2-082]
- Herbicidal effect on A: late watergrass (grade 0-5) (late watergrass; 320 g/ha applied herbicide): 2 (Herbicidal rate of 20% or more and less than 40%)
- Herbicidal effect on B: Japanese bulrush (grade 0-5) (Japanese bulrush; 320 g/ha applied herbicide): 3 (Herbicidal rate of 40% or more and less than 70%)
- Herbicidal effect on C: oval-leafed pondweed (grade 0-5) (oval-leafed pondweed; 320 g/ha applied herbicide): 0 (Herbicidal rate of 5% or less (almost no effect))
- herbicidal effect on H (barnyard grass), rating 0-5 (barnyard grass [1]; 320 g/ha): 4 (Herbicidal rate of 70% or more and less than 90%)
- herbicidal effect on D (Chinese sprangletop), rating 0-5 (Chinese sprangletop; 320 g/ha): 2 (Herbicidal rate of 20% or more and less than 40%)
- herbicidal effect on E (rice flat sedge), rating 0-5 (rice flat sedge; 320 g/ha): 4 (Herbicidal rate of 70% or more and less than 90%)
- herbicidal effect rating, F: southern crabgrass (southern crabgrass [2]; 320 g/ha): 1 (Herbicidal rate of 5% or more and less than 20%)
- herbicidal effect rating, G: green foxtail (green foxtail [3]; 320 g/ha): 0 (Herbicidal rate of 5% or less (almost no effect))
- herbicidal effect rating, H: barnyard grass (barnyard grass [4]; 320 g/ha): 0 (Herbicidal rate of 5% or less (almost no effect))
- herbicidal effect rating, I: wild oat (wild oat [5]; 320 g/ha): 0 (Herbicidal rate of 5% or less (almost no effect))
- herbicidal effect rating, J: blackgrass (blackgrass [6]; 320 g/ha): 0 (Herbicidal rate of 5% or less (almost no effect))
- herbicidal effect rating, K: Italian ryegrass (Italian ryegrass [7]; 320 g/ha): 0 (Herbicidal rate of 5% or less (almost no effect))
- herbicidal effect rating, L: windgrass (windgrass [8]; 320 g/ha): 0 (Herbicidal rate of 5% or less (almost no effect))
- herbicidal effect rating, M: velvetleaf (velvetleaf [9]; 320 g/ha): 0 (Herbicidal rate of 5% or less (almost no effect))
- herbicidal effect rating, N: redroot pigweed (redroot pigweed [10]; 320 g/ha): 3 (Herbicidal rate of 40% or more and less than 70%)
- herbicidal effect rating, O: lambsquarters (lambsquarters [11]; 320 g/ha): 2 (Herbicidal rate of 20% or more and less than 40%)
- herbicidal effect rating, Q: false cleavers (false cleavers; 320 g/ha): 0 (Herbicidal rate of 5% or less (almost no effect))
- herbicidal effect on F: southern crabgrass (southern crabgrass [12]; [22]): 0 (Herbicidal rate of 5% or less (almost no effect))
- herbicidal effect on G: green foxtail (green foxtail [13]; [22]): 0 (Herbicidal rate of 5% or less (almost no effect))
- herbicidal effect on H: barnyard grass (barnyard grass [14]; [22]): 0 (Herbicidal rate of 5% or less (almost no effect))
- herbicidal effect on I: wild oat (wild oat [15]; [22]): 0 (Herbicidal rate of 5% or less (almost no effect))
- herbicidal effect on J: blackgrass (blackgrass [16]; [22]): 0 (Herbicidal rate of 5% or less (almost no effect))
- herbicidal effect on K: Italian ryegrass (Italian ryegrass [17]; [22]): 0 (Herbicidal rate of 5% or less (almost no effect))
- herbicidal effect on L: windgrass (windgrass [18]; [22]): 0 (Herbicidal rate of 5% or less (almost no effect))
- herbicidal effect on M: velvetleaf (velvetleaf [19]; [22]): 3 (Herbicidal rate of 40% or more and less than 70%)
- herbicidal effect on N: redroot pigweed (redroot pigweed [20]): 3 (Herbicidal rate of 40% or more and less than 70%)
- herbicidal effect on O: lambsquarters (lambsquarters [21]; [22]): 3 (Herbicidal rate of 40% or more and less than 70%)
- herbicidal effect on P: chickweed (chickweed): 5 (Herbicidal rate of 90% or more (almost completely withered))
- herbicidal effect on R: persian speedwell (persian speedwell; [22]): 3 (Herbicidal rate of 40% or more and less than 70%)

SMILES: COCc1ccc(-c2oc3ccc(F)cc3c2-c2c(O)c(C)nn(C)c2=O)cc1 [9-043]
- Herbicidal effect, A: late watergrass (late watergrass; [23]): 3 (Herbicidal rate of 40% or more and less than 70%)
- Herbicidal effect, B: Japanese bulrush (Japanese bulrush; [23]): 0 (Herbicidal rate of 5% or less (almost no effect))
- Herbicidal effect, C: oval-leafed pondweed (oval-leafed pondweed; [23]): 2 (Herbicidal rate of 20% or more and less than 40%)
- Herbicidal effect on H (barnyard grass), foliage application (barnyard grass [1]; [23]): 4 (Herbicidal rate of 70% or more and less than 90%)
- Herbicidal effect on D (Chinese sprangletop), foliage application (Chinese sprangletop; [23]): 3 (Herbicidal rate of 40% or more and less than 70%)
- Herbicidal effect on E (rice flat sedge), foliage application (rice flat sedge; [23]): 5 (Herbicidal rate of 90% or more (almost completely withered))
- F: southern crabgrass, herbicidal effect grade (southern crabgrass [2]; [23]): 4 (Herbicidal rate of 70% or more and less than 90%)
- G: green foxtail, herbicidal effect grade (green foxtail [3]; [23]): 5 (Herbicidal rate of 90% or more (almost completely withered))
- H: barnyard grass, herbicidal effect grade (barnyard grass [4]; [23]): 4 (Herbicidal rate of 70% or more and less than 90%)
- I: wild oat, herbicidal effect grade (wild oat [5]; [23]): 0 (Herbicidal rate of 5% or less (almost no effect))
- J: blackgrass, herbicidal effect grade (blackgrass [6]; [23]): 4 (Herbicidal rate of 70% or more and less than 90%)
- K: Italian ryegrass, herbicidal effect grade (Italian ryegrass [7]; [23]): 5 (Herbicidal rate of 90% or more (almost completely withered))
- L: windgrass, herbicidal effect grade (windgrass [8]; [23]): 0 (Herbicidal rate of 5% or less (almost no effect))
- M: velvetleaf, herbicidal effect grade (velvetleaf [9]; [23]): 4 (Herbicidal rate of 70% or more and less than 90%)
- N: redroot pigweed, herbicidal effect grade (redroot pigweed [10]; [23]): 5 (Herbicidal rate of 90% or more (almost completely withered))
- O: lambsquarters, herbicidal effect grade (lambsquarters [11]; [23]): 3 (Herbicidal rate of 40% or more and less than 70%)
- Q: false cleavers, herbicidal effect grade (false cleavers; [23]): 0 (Herbicidal rate of 5% or less (almost no effect))
- herbicidal effect on southern crabgrass (F) (southern crabgrass [12]; three weeks after application): 3 (Herbicidal rate of 40% or more and less than 70%)
- herbicidal effect on green foxtail (G) (green foxtail [13]; three weeks after application): 4 (Herbicidal rate of 70% or more and less than 90%)
- herbicidal effect on barnyard grass (H) (barnyard grass [14]; three weeks after application): 3 (Herbicidal rate of 40% or more and less than 70%)
- herbicidal effect on wild oat (I) (wild oat [15]; three weeks after application): 0 (Herbicidal rate of 5% or less (almost no effect))
- herbicidal effect on blackgrass (J) (blackgrass [16]; three weeks after application): 4 (Herbicidal rate of 70% or more and less than 90%)
- herbicidal effect on Italian ryegrass (K) (Italian ryegrass [17]; three weeks after application): 5 (Herbicidal rate of 90% or more (almost completely withered))
- herbicidal effect on windgrass (L) (windgrass [18]; three weeks after application): 0 (Herbicidal rate of 5% or less (almost no effect))
- herbicidal effect on velvetleaf (M) (velvetleaf [19]; three weeks after application): 4 (Herbicidal rate of 70% or more and less than 90%)
- herbicidal effect on lambsquarters (O) (lambsquarters [21]; three weeks after application): 4 (Herbicidal rate of 70% or more and less than 90%)
- herbicidal effect on persian speedwell (R) (persian speedwell; three weeks after application): 5 (Herbicidal rate of 90% or more (almost completely withered))
